What was measured:
[1] = tested on: Botryotinia fuckeliana (Botrvtis cinerea); experiment: Botryotinia fuckeliana (Botrvtis cinerea)/Liquid Culture (Gray Mould); assay type: cell-based; details: Botrytis cinerea; 200 ppm in the formulation; liquid culture, growth inhibition photometrically 3-4 days after application; compared to untreated control; read-out: disease control
Method: (§1) Botryotinia fuckeliana (Botrvtis cinerea)/Liquid Culture (Gray Mould) Conidia of the fungus from cryogenic storage are directly mixed into nutrient broth (Vogels broth). After placing a (DMSO) solution of test compound into a microtiter plate (96-well format), the nutrient broth containing the fungal spores is added. The test plates are incubated at 24° C. and the inhibition of growth is determined photometrically 3-4 days after application.

[2] = tested on: Mycosphaerella arachidis (Cercospora arachidicola); experiment: Mycosphaerella arachidis (Cercospora arachidicola)/Liquid Culture (Early Leaf Spot); assay type: cell-based; details: 200 ppm in the formulation, liquid culture, growth inhibition photometrically 4-5 days after application, compared to untreated control, read-out: disease control
Method: as §1, with “Mycosphaerella arachidis (Cercospora arachidicola)/Liquid” for “Botryotinia fuckeliana (Botrvtis cinerea)/Liquid”, “(Early Leaf Spot)” for “(Gray Mould)”, “(PDB potato dextrose” for “(Vogels”, “4-5” for “3-4”

[3] = tested on: Mycosphaerella graminicola (Septoria tritici); experiment: Mycosphaerella graminicola (Septoria tritici)/Liquid Culture (Septoria Blotch); assay type: cell-based; details: Zymoseptoria tritici; 200 ppm in the formulation; liquid culture, growth inhibition photometrically 4 to 5 days after application; compared to untreated control; read-out: disease control
Method: as §1, with “Mycosphaerella graminicola (Septoria tritici)/Liquid” for “Botryotinia fuckeliana (Botrvtis cinerea)/Liquid”, “(Septoria Blotch)” for “(Gray Mould)”, “(PDB potato dextrose” for “(Vogels”, “4 to 5” for “3-4”

[4] = tested on: Glomerella lagenarium (Colletotrichum lagenarium); experiment: Glomerella lagenarium (Colletotrichum lagenarium)/Liquid Culture (Anthracnose); assay type: cell-based; details: Colletotrichum orbiculare; 200 ppm in the formulation; liquid culture, growth inhibition photometrically 3 to 4 days after application; compared to untreated control; read-out: disease control
Method: as §1, with “Glomerella lagenarium (Colletotrichum lagenarium)/Liquid” for “Botryotinia fuckeliana (Botrvtis cinerea)/Liquid”, “(Anthracnose)” for “(Gray Mould)”, “(PDB potato dextrose” for “(Vogels”, “measured” for “determined”, “3 to 4” for “3-4”

[5] = tested on: Monographella nivalis (Microdochium nivale); experiment: Monographella nivalis (Microdochium nivale)/Liquid Culture (Foot Rot Cereals); assay type: cell-based; details: 200 ppm in the formulation, liquid culture, growth inhibition photometrically 4-5 days after application, compared to untreated control, read-out: disease control
Method: as §1, with “Monographella nivalis (Microdochium nivale)/Liquid” for “Botryotinia fuckeliana (Botrvtis cinerea)/Liquid”, “(Foot Rot Cereals)” for “(Gray Mould)”, “(PDB potato dextrose” for “(Vogels”, “4-5” for “3-4”

[6] = tested on: Puccinia recondita f. sp. tritici; experiment: Puccinia recondita f. sp. tritici/Wheat/Leaf Disc Preventative (Brown Rust); assay type: in vivo; details: foliar, 200 ppm in the formulation, wheat leaf segments cv. Kanzler, inoculated 1 day after application, assessed 7-9 days after application, compared to untreated, read-out: disease control
Method: Puccinia recondita f. sp. tritici/Wheat/Leaf Disc Preventative (Brown Rust) Wheat leaf segments cv. Kanzler are placed on agar in multiwell plates (24-well format) and sprayed with the formulated test compound diluted in water. The leaf disks are inoculated with a spore suspension of the fungus 1 day after application. The inoculated leaf segments are incubated at 19° C. and 75% rh under a light regime of 12 h light/12 h darkness in a climate cabinet and the activity of a compound is assessed as percent disease control compared to untreated when an appropriate level of disease damage appears in untreated check leaf segments (7-9 days after application).

COc1ccnc(C(=O)N[C@@H](C)C(=O)O[C@@H](C)c2cccc(-c3ccccc3)c2)c1O [I.a.001, [(1S)-1-(3-phenylphenyl)ethyl] (2S)-2-[(3-hydroxy-4-methoxy-pyridine-2-carbonyl)amino] propanoate]
≥ 80%: inhibition of growth at 200 ppm [1] | inhibition of growth at 200 ppm [2] | inhibition of growth at 200 ppm [3] | inhibition of growth at 200 ppm [4] | inhibition of growth at 200 ppm [5]

COc1ccnc(C(=O)N[C@@H](C)C(=O)O[C@@H](C)c2ccc(-c3ccc(C(F)(F)F)nc3)cc2)c1O [I.af.001, [(1S)-1-[4-[6-(trifluoromethyl)-3-pyridyl]phenyl]ethyl] (2S)-2-[(3-hydroxy-4-methoxy-pyridine-2-carbonyl)amino] propanoate]
≥ 80%: inhibition of growth at 200 ppm [2] | inhibition of growth at 200 ppm [3] | pest or weed control at 200 ppm [6] | inhibition of growth at 200 ppm [4] | inhibition of growth at 200 ppm [5]

COc1ccnc(C(=O)N[C@@H](C)C(=O)O[C@@H](C)c2ccc(-c3cncc(Cl)c3)cc2)c1O [I.ah.001, [(1S)-1-[4-(5-chloro-3-pyridyl)phenyl]ethyl] (2S)-2-[(3-hydroxy-4-methoxy-pyridine-2-carbonyl)amino] propanoate]
≥ 80%: inhibition of growth at 200 ppm [2] | inhibition of growth at 200 ppm [3] | pest or weed control at 200 ppm [6] | inhibition of growth at 200 ppm [4] | inhibition of growth at 200 ppm [5]

COc1ccnc(C(=O)N[C@@H](C)C(=O)O[C@@H](C)c2cccc(Oc3cccc(Cl)c3)c2)c1O [I.ar.001, [(1S)-1-[3-(3-chlorophenoxy)phenyl]ethyl] (2S)-2-[(3-hydroxy-4-methoxy-pyridine-2-carbonyl)amino] propanoate]
≥ 80%: inhibition of growth at 200 ppm [2] | inhibition of growth at 200 ppm [3] | pest or weed control at 200 ppm [6] | inhibition of growth at 200 ppm [4]

COc1ccnc(C(=O)N[C@@H](C)C(=O)O[C@@H](C)c2cccc(Oc3ccc(Cl)cc3)c2)c1O [I.as.001, [(1S)-1-[3-(4-chlorophenoxy)phenyl]ethyl] (2S)-2-[(3-hydroxy-4-methoxy-pyridine-2-carbonyl)amino] propanoate]
≥ 80%: inhibition of growth at 200 ppm [1] | inhibition of growth at 200 ppm [2] | inhibition of growth at 200 ppm [3] | pest or weed control at 200 ppm [6] | inhibition of growth at 200 ppm [4]

COc1ccnc(C(=O)N[C@@H](C)C(=O)O[C@@H](C)c2ccc(Oc3ccccc3)cc2)c1O [I.at.001, [(1S)-1-(4-phenoxyphenyl)ethyl] (2S)-2-[(3-hydroxy-4-methoxy-pyridine-2-carbonyl)amino] propanoate]
≥ 80%: inhibition of growth at 200 ppm [2] | inhibition of growth at 200 ppm [3] | pest or weed control at 200 ppm [6] | inhibition of growth at 200 ppm [4] | inhibition of growth at 200 ppm [5]

COc1ccnc(C(=O)N[C@@H](C)C(=O)O[C@@H](C)c2ccc(Oc3cccc(Cl)c3)cc2)c1O [I.au.001, [(1S)-1-[4-(3-chlorophenoxy)phenyl]ethyl] (2S)-2-[(3-hydroxy-4-methoxy-pyridine-2-carbonyl)amino] propanoate]
≥ 80%: inhibition of growth at 200 ppm [2] | inhibition of growth at 200 ppm [3] | pest or weed control at 200 ppm [6] | inhibition of growth at 200 ppm [4] | inhibition of growth at 200 ppm [5]

COc1ccnc(C(=O)N[C@@H](C)C(=O)O[C@@H](C)c2ccc(Oc3ccc(Cl)cc3)cc2)c1O [I.av.001, [(1S)-1-[4-(4-chlorophenoxy)phenyl]ethyl] (2S)-2-[(3-hydroxy-4-methoxy-pyridine-2-carbonyl)amino] propanoate]
≥ 80%: inhibition of growth at 200 ppm [2] | inhibition of growth at 200 ppm [3] | pest or weed control at 200 ppm [6] | inhibition of growth at 200 ppm [4] | inhibition of growth at 200 ppm [5]

COc1ccnc(C(=O)N[C@@H](C)C(=O)O[C@@H](C)c2cccc(-c3ccccc3Cl)c2)c1O [I.b.001, [(1S)-1-[3-(2-chlorophenyl)phenyl]ethyl] (2S)-2-[(3-hydroxy-4-methoxy-pyridine-2-carbonyl)amino] propanoate]
≥ 80%: inhibition of growth at 200 ppm [1] | inhibition of growth at 200 ppm [2] | inhibition of growth at 200 ppm [3] | pest or weed control at 200 ppm [6] | inhibition of growth at 200 ppm [5]

COc1ccnc(C(=O)N[C@@H](C)C(=O)O[C@@H](C)c2ccc(-c3cscc3C)cc2)c1O [I.bb.001, [(1S)-1-[4-(4-methyl-3-thienyl)phneyl]ethyl] (2S)-2-[(3-hydroxy-4-methoxy-pyridine-2-carbonyl)amino] propanoate]
≥ 80%: inhibition of growth at 200 ppm [2] | inhibition of growth at 200 ppm [3] | pest or weed control at 200 ppm [6] | inhibition of growth at 200 ppm [4] | inhibition of growth at 200 ppm [5]

COc1ccnc(C(=O)N[C@@H](C)C(=O)O[C@@H](C)c2ccc(-c3ccccc3)cc2)c1O [I.d.001, [(1S)-1-(4-phenylphenyl)ethyl] (2S)-2-[(3-hydroxy-4-methoxy-pyridine-2-carbonyl)amino] propanoate]
≥ 80%: inhibition of growth at 200 ppm [1] | inhibition of growth at 200 ppm [2] | inhibition of growth at 200 ppm [3] | pest or weed control at 200 ppm [6] | inhibition of growth at 200 ppm [4] | inhibition of growth at 200 ppm [5]

COc1ccnc(C(=O)N[C@@H](C)C(=O)O[C@@H](C)c2ccc(-c3ccccc3)c(F)c2)c1O [I.e.001, [(1S)-1-(3-fluoro-4-phenyl-phenyl)ethyl] (2S)-2-[(3-hydroxy-4-methoxy-pyridine-2-carbonyl)amino] propanoate]
≥ 80%: inhibition of growth at 200 ppm [1] | inhibition of growth at 200 ppm [2] | inhibition of growth at 200 ppm [3] | pest or weed control at 200 ppm [6] | inhibition of growth at 200 ppm [4] | inhibition of growth at 200 ppm [5]

COc1ccnc(C(=O)N[C@@H](C)C(=O)O[C@@H](C)c2ccc(-c3ccccc3C(C)C)cc2)c1O [I.j.001, [(1S)-1-[4-(2-isopropylphenyl)phenyl]ethyl] (2S)-2-[(3-hydroxy-4-methoxy-pyridine-2-carbonyl)amino] propanoate]
≥ 80%: inhibition of growth at 200 ppm [2] | inhibition of growth at 200 ppm [3] | pest or weed control at 200 ppm [6] | inhibition of growth at 200 ppm [4] | inhibition of growth at 200 ppm [5]

COc1ccnc(C(=O)N[C@@H](C)C(=O)O[C@@H](C)c2ccc(-c3cc(C)ccc3C)cc2)c1O [I.p.001, [(1S)-1-[4-(2,5-dimethylphenyl)phenyl]ethyl] (2S)-2-[(3-hydroxy-4-methoxy-pyridine-2-carbonyl)amino] propanoate]
≥ 80%: inhibition of growth at 200 ppm [1] | inhibition of growth at 200 ppm [2] | inhibition of growth at 200 ppm [3] | pest or weed control at 200 ppm [6] | inhibition of growth at 200 ppm [4]

COc1ccnc(C(=O)N[C@@H](C)C(=O)O[C@@H](C)c2ccc(-c3ccc(Cl)c(C)c3)cc2)c1O [I.y.001, [(1S)-1-[4-(4-chloro-3-methyl-phenyl)phenyl]ethyl] (2S)-2-[(3-hydroxy-4-methoxy-pyridine-2-carbonyl)amino] propanoate]
≥ 80%: inhibition of growth at 200 ppm [2] | inhibition of growth at 200 ppm [3] | pest or weed control at 200 ppm [6] | inhibition of growth at 200 ppm [4]

COc1ccnc(C(=O)N[C@@H](C)C(=O)O[C@@H](C)c2ccc(-c3cccc4ccccc34)cc2)c1O [I.z.001, [(1S)-1-[4-(1-naphthyl)phenyl]ethyl] (2S)-2-[(3-hydroxy-4-methoxy-pyridine-2-carbonyl)amino] propanoate]
≥ 80%: inhibition of growth at 200 ppm [1] | inhibition of growth at 200 ppm [2] | inhibition of growth at 200 ppm [3] | pest or weed control at 200 ppm [6] | inhibition of growth at 200 ppm [4]

Source: patent US11629129B2, “Microbiocidal picolinamide derivatives” (SYNGENTA PARTICIPATIONS AG, priority 2018, dated 2023)
